From ChEMBL document CHEMBL5370540, “Discovery of pyrimidine-5-carboxamide derivatives as novel salt-inducible kinases (SIKs) inhibitors for inflammatory bowel disease (IBD) treatment” (Eur J Med Chem, 2023)
The source made the active and inactive calls. The rule behind the calls is not given here.

Key:
[1] = Selectivity ratio of IC50 for SIK1 (unknown origin) to IC50 for SIK2 (unknown origin)
[2] = target: Protein-tyrosine kinase 6 (Homo sapiens) (UniProt Q13882); test: Inhibition of BRK (unknown origin) at 1 uM
[3] = target: Tyrosine-protein kinase FRK (Homo sapiens) (UniProt P42685); test: Inhibition of PTK5 (unknown origin) at 1 uM
[4] = target: Tyrosine-protein kinase Lyn (Homo sapiens) (UniProt P07948); test: Inhibition of Lyn (unknown origin) at 1 uM
[5] = target: Tyrosine-protein kinase HCK (Homo sapiens) (UniProt P08631); test: Inhibition of HcK (unknown origin) at 1 uM
[6] = target: Cytoplasmic tyrosine-protein kinase BMX (Homo sapiens) (UniProt P51813); test: Inhibition of Bmx (unknown origin) at 1 uM
[7] = target: Tyrosine-protein kinase BTK (Homo sapiens) (UniProt Q06187); test: Inhibition of BTK (unknown origin) at 1 uM
[8] = target: Tyrosine-protein kinase Tec (Homo sapiens) (UniProt P42680); test: Inhibition of Tec (unknown origin) at 1 uM
[9] = Half life in Sprague-Dawley rat at 5 mg/kg, iv measured upto 24 hrs by LC/MS/MS analysis; type: ADME, organism-based; conditions: in vivo
[10] = Tmax in Sprague-Dawley rat at 5 mg/kg, iv measured upto 24 hrs by LC/MS/MS analysis; type: ADME, organism-based; conditions: in vivo
[11] = Cmax in Sprague-Dawley rat at 5 mg/kg, iv measured upto 24 hrs by LC/MS/MS analysis; type: ADME, organism-based; set-up: dose 5 mg/kg, time < 24 hrs, route iv; conditions: in vivo
[12] = AUC (0 to t) in Sprague-Dawley rat at 10 mg/kg, po measured upto 24 hrs by LC/MS/MS analysis; type: ADME, organism-based; set-up: dose 10 mg/kg, time < 24 hrs, route po; conditions: in vivo
[13] = Tmax in Sprague-Dawley rat at 10 mg/kg, po measured upto 24 hrs by LC/MS/MS analysis; type: ADME, organism-based; conditions: in vivo
[14] = Protein binding in human plasma at 10 uM measured for 8 hrs by dialysis method; type: ADME, cell-free; conditions: read-out: PPB (converted)
BMDM [15] = test: Cytotoxicity against C57BL/6J mouse BMDM cells assessed as cell viability upto 500 nM preincubated for 1 hr followed by LPS stimulation measured after 2 to 4 hrs by CCK8 assay; type: toxicity, cell-based; conditions: 0.5 µM, time 3-5 hrs
BMDM [16] = test: Anti-inflammatory activity against C57BL/6J mouse BMDM cells assessed as increase in IL-10 level at 500 nM preincubated for 1 hr followed by LPS stimulation measured after 2 to 8 hrs by ELISA method; type: functional, cell-based; conditions: time 3-9 hrs
BMDM [17] = test: Anti-inflammatory activity against C57BL/6J mouse BMDM cells assessed as decrease in IL-12 level at 500 nM preincubated for 1 hr followed by LPS stimulation measured after 4 to 8 hrs by ELISA method; type: functional, cell-based; conditions: time 5-9 hrs
[18] = target: Serine/threonine-protein kinase SIK2 (Mus musculus) (UniProt Q8CFH6); test: Inhibition of SIK2 in C57BL/6J mouse BMDM cells assessed as increase in IL-10 mRNA level at 500 nM preincubated for 1 hr followed by LPS stimulation measured for 1 hr by qPCR analysis; type: cell-based; conditions: time 2.0 hrs
[19] = target: Serine/threonine-protein kinase SIK2 (Mus musculus) (UniProt Q8CFH6); test: Inhibition of SIK2 in C57BL/6J mouse BMDM cells assessed as increase in c-FOS mRNA level at 500 nM preincubated for 1 hr followed by LPS stimulation measured for 1 hr by qPCR analysis; type: cell-based; conditions: time 2.0 hrs
[20] = target: Serine/threonine-protein kinase SIK2 (Mus musculus) (UniProt Q8CFH6); test: Inhibition of SIK2 in C57BL/6J mouse BMDM cells assessed as increase in IL-12 mRNA level at 500 nM preincubated for 1 hr followed by LPS stimulation measured for 1 hr by qPCR analysis; type: cell-based; conditions: time 2.0 hrs
[21] = target: Serine/threonine-protein kinase SIK2 (Mus musculus) (UniProt Q8CFH6); test: Inhibition of SIK2 in C57BL/6J mouse BMDM cells assessed as increase in SPHK1 mRNA level at 500 nM preincubated for 1 hr followed by LPS stimulation measured upto 8 hrs by qPCR analysis; type: cell-based; conditions: time <= 9.0 hrs
[22] = Toxicity in DSS-induced colitis C57BL/6J mouse model at 30 mg/kg, ip; type: organism-based; conditions: in vivo
Mus musculus [23] = test: Antiinflammatory activity in DSS-induced colitis C57BL/6J mouse model assessed as increase in colon length at 7.5 to 30 mg/kg, ip measured after 12 days; type: functional, organism-based; conditions: dose 7.5-30 mg/kg, time 12.0 day
Mus musculus [24] = test: Antiinflammatory activity in DSS-induced colitis C57BL/6J mouse model assessed as decrease in thickening of inherent base layer at 7.5 to 15 mg/kg, ip measured after 12 days by H&E staining based analysis; type: functional, organism-based; conditions: dose 7.5-15 mg/kg, time 12.0 day
Mus musculus [25] = test: Antiinflammatory activity in DSS-induced colitis C57BL/6J mouse model assessed as increase in body weight at 50 to 100 mg/kg, po; type: functional, organism-based; conditions: dose 50-100 mg/kg
Mus musculus [26] = test: Antiinflammatory activity in DSS-induced colitis C57BL/6J mouse model assessed as increase in colon length at 50 to 100 mg/kg, po measured after 12 days; type: functional, organism-based; conditions: dose 50-100 mg/kg, time 12.0 day

Sequence of Serine/threonine-protein kinase SIK2 (Mus musculus) (Q8CFH6 whole entry): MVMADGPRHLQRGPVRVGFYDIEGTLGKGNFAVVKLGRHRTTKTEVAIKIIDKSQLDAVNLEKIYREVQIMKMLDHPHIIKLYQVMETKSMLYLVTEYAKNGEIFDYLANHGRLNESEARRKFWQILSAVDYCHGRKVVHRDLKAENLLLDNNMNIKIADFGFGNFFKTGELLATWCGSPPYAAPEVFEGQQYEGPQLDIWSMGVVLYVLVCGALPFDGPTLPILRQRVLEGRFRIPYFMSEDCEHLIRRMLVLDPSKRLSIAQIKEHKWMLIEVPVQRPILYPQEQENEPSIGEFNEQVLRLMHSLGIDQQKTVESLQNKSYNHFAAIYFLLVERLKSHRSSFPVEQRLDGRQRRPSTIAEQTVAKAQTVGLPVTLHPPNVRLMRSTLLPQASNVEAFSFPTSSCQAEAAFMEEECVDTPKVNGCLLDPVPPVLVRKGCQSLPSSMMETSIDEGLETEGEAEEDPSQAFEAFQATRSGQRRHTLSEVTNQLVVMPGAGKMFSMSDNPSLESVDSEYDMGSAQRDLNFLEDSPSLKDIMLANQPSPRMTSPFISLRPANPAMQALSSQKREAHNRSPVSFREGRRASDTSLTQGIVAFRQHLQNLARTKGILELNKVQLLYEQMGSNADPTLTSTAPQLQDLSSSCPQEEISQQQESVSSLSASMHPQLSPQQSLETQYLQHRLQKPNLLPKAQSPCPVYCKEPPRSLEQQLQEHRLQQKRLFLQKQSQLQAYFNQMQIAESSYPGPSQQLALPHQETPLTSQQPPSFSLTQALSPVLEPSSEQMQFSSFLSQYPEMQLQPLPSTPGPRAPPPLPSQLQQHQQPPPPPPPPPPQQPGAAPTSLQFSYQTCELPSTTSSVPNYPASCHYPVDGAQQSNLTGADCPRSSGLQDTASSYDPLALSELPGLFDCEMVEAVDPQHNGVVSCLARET
Sequence of Cytoplasmic tyrosine-protein kinase BMX (Homo sapiens) (P51813 whole entry): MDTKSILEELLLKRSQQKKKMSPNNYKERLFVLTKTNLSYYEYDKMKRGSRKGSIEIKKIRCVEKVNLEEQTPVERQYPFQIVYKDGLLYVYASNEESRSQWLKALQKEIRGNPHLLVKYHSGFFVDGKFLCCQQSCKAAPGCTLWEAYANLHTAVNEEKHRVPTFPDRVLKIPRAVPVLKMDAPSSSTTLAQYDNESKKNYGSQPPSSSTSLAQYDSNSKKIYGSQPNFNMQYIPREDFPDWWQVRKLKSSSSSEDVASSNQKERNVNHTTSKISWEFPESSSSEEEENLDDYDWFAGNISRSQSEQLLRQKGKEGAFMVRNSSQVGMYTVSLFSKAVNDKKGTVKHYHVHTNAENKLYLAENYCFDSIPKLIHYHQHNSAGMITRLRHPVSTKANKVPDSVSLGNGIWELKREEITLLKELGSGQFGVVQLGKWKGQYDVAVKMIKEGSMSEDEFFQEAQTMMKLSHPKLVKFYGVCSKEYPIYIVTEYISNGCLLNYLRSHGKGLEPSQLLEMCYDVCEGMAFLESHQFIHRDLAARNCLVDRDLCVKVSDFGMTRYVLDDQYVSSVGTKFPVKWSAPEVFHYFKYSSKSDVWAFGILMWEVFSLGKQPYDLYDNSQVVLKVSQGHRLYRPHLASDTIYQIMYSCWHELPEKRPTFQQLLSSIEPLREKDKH
Sequence of Tyrosine-protein kinase Tec (Homo sapiens) (P42680 whole entry): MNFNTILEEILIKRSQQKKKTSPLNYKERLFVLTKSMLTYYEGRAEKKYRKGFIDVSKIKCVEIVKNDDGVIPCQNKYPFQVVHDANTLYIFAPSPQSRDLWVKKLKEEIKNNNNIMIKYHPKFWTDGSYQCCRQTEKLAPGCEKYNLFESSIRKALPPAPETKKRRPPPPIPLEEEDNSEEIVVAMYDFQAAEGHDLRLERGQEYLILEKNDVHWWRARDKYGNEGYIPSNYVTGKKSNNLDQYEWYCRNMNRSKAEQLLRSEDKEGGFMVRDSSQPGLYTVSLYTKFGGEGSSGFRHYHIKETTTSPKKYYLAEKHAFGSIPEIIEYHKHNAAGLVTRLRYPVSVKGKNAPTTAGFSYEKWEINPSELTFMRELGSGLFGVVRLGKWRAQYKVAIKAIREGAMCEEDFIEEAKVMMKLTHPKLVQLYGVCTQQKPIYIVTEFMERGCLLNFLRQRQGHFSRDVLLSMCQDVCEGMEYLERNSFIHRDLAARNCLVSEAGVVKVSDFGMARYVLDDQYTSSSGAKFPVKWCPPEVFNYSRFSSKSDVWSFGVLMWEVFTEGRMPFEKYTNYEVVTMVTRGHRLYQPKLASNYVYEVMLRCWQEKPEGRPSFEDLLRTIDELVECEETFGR
Sequence of Tyrosine-protein kinase BTK (Homo sapiens) (Q06187 whole entry): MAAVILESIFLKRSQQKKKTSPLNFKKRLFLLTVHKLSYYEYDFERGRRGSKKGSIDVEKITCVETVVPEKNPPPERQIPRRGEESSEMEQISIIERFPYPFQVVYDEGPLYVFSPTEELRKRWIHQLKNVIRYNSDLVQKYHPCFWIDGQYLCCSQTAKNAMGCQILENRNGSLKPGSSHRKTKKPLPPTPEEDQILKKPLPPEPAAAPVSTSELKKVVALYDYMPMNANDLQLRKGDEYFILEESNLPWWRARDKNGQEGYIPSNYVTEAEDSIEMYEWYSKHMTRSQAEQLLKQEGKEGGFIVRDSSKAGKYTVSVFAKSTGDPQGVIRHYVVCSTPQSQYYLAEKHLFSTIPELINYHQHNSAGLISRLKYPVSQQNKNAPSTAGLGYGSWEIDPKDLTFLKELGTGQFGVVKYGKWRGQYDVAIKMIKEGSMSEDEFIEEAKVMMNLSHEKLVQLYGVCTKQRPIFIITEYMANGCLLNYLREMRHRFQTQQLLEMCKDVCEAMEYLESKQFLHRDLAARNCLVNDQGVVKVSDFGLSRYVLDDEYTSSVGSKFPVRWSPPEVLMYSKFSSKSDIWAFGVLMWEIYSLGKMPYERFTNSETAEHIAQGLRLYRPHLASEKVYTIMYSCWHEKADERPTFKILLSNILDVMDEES
Sequence of Protein-tyrosine kinase 6 (Homo sapiens) (Q13882 whole entry, looked up): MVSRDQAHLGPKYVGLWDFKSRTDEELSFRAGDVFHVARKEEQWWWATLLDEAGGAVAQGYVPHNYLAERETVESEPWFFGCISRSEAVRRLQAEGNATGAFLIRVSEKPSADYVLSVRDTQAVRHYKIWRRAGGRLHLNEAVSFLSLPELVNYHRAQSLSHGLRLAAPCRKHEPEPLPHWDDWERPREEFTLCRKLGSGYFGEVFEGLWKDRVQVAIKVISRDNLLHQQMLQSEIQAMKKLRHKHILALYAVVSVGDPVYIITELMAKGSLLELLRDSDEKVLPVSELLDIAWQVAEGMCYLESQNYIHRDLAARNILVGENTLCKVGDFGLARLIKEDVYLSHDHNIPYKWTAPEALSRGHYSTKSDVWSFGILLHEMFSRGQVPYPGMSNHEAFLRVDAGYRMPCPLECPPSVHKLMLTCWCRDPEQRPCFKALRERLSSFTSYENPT
Sequence of Tyrosine-protein kinase HCK (Homo sapiens) (P08631 2-526 limits assumed): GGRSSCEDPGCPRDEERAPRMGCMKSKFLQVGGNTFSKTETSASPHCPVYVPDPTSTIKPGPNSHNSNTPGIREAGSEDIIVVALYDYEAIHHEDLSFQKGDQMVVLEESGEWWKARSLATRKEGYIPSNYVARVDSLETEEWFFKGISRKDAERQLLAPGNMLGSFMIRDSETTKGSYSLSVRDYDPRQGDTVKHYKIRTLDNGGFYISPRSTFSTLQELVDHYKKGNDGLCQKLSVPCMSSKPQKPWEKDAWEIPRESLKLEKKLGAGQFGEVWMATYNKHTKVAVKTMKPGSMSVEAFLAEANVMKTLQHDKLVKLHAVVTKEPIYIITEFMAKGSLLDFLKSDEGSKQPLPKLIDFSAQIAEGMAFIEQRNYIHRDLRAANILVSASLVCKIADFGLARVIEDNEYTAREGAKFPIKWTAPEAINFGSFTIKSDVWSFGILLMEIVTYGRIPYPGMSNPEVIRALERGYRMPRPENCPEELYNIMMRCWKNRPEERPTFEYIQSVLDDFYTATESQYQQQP
Sequence of Tyrosine-protein kinase FRK (Homo sapiens) (P42685 whole entry): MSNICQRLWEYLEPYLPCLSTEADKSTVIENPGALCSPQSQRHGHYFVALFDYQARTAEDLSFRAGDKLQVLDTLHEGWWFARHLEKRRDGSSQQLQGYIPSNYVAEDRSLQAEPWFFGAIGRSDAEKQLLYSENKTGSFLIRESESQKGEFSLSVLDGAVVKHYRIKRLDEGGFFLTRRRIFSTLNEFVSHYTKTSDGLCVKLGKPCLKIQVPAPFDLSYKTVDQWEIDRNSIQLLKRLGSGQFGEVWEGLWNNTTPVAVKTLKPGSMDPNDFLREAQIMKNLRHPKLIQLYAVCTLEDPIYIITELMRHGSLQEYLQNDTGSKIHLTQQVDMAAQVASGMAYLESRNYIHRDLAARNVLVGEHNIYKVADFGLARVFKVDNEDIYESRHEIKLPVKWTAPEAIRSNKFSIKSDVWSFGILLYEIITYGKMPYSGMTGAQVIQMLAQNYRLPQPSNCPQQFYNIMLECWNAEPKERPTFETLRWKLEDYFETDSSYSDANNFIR
Sequence of Tyrosine-protein kinase Lyn (Homo sapiens) (P07948 2-512 limits assumed): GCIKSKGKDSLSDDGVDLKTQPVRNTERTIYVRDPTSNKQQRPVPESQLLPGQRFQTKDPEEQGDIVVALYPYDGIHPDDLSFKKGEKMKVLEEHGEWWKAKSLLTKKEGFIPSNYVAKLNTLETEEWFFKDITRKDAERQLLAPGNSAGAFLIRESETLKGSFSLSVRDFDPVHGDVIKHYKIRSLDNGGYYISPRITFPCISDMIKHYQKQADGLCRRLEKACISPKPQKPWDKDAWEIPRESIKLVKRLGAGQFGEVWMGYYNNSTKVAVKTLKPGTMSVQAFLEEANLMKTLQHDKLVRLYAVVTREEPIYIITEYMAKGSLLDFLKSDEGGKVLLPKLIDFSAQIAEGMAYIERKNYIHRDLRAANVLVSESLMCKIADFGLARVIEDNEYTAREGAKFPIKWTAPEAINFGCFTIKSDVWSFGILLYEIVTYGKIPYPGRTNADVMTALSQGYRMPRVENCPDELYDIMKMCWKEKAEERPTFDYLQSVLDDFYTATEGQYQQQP

Ratio IC50 [1]: 3 | inhibition [2]: Active | inhibition [3]: Active | inhibition [4]: Active | inhibition [5]: Active | inhibition [6]: Active | inhibition [7]: Active | inhibition [8]: Active | half-life [9]: 690 min | Tmax [10]: 6 min | Cmax [11]: 12000 ng/mL | AUC(0-t) at 24 h [12]: 9340 ng·h/mL | Tmax [13]: 8 h | fraction unbound at 8 h, 10 µM [14]: 0.206 | inhibition [18]: Active | inhibition [19]: Active | inhibition [20]: Active | inhibition [21]: Active
SMILES: Cc1cccc(F)c1NC(=O)c1cnc(Nc2ccc(N3CCN(C)CC3)c(F)c2)nc1NC1CCC1
Activity (BMDM [15]): Non-Toxic | Activity (BMDM [16]): Active | Activity (BMDM [17]): inactive | Activity [22]: Toxic | Activity (Mus musculus [23]): Active | Activity (Mus musculus [24]): Active | Activity (Mus musculus [25]): Active | Activity (Mus musculus [26]): Active
